This is an account of results in patent publication US10549237B2, “Regenerable draw solute for osmotically driven processes” (NANYANG TECHNOLOGICAL UNIVERSITY, priority 2015, dated 2020).

Data set [1] in a line: Water flux during forward osmosis in a cross-flow setup (Example 3, FIG. 2). As to conditions: 40 wt % draw solution. The protocol:
Water flux during FO was measured in a cross-flow setup by monitoring the feed solution weight decrease with time. The method is adapted from a reported standard procedure. The initial weight of feed solution and draw solution was 500 g and 200 g, respectively. The effective membrane area was 58.5 cm^2. The feed and draw solutions flew in co-current in order to reduce the tension stress on membrane. The flow rate was 400 ml/min and plastic spacers were used in both feed and draw sides to reduce concentration polarization. During the tests, the temperature in draw solution and feed solution were monitored to be 50±1° C. and 46±2° C. respectively. The concentrations of feed solution and draw solution were kept virtually constant during the measurement. Water flux measurements were conducted in both FO mode (selective membrane layer facing towards feed solution) and PRO mode (selective layer facing towards draw solution). The water flux was calculated by: Flux=Δm/(A*t) (1)
Where Δm is the value of feed solution weight decrease (kg), t is the corresponding measurement time (h) and A is the membrane area in square meters. Therefore, the flux is in unit of liter per square meter per hour (LMH) if the density of water is assumed to be 1 kg/L.

Data set [2] in a line: Residual Na2HPO4 concentration after acetone extractive crystallization of the supernatant (Example 2). The class given is physicochemical. To be noted: acetone added to 10 wt % supernatant; lowest value, depends on amount of solvent. The protocol:
[…]. There is an instantaneous phase separation resulting in precipitation of solid crystal hydrates upon acetone addition. The mixture was allowed to settle for 1 hour before the solid crystals are removed. […] The Na2HPO4 concentration in water/acetone mixtures were then calculated accordingly. All the measurements were repeated for three times.

With Disodium phosphate, the water flux is on record as 8 LMH in data set [1] (feed 3.5 wt % NaCl (artificial seawater), FO mode, draw 50±1° C., feed 46±2° C.); 19 LMH in data set [1] (feed 3.5 wt % NaCl (artificial seawater), PRO mode, draw 50±1° C., feed 46±2° C.); “about 1.0 LMH” in data set [1] (feed 17 wt % NaCl). The “residual Na2HPO4 concentration after extractive crystallization” value in data set [2] is listed as 0.28 wt %.
